# “Also recorded” adds a separate entry of the source. Like-named read-outs stand apart in the source and are kept apart here.
# Assays:
# in vitro = settings: dog
# [1] = system: A/H1N1 virus A/Virginia/ATCC3/2009 (Virg09); test: microbe, parasite or virus in culture; type: cell-based, influenza A virus
# [2] = system: A/H1N1 virus A/PR/8/34 (PR8); test: microbe, parasite or virus in culture; type: cell-based; settings: Influenza A virus, MDCK
# MDCK cells = settings: for Cytotoxicity MCC, Microscopy: dog
# A/H1N1 virus = test: microbe, parasite or virus in culture; type: cell-based, influenza A virus
# [3] = Influenza A virus, MDCK, read-out: Antiviral EC50 against A/H1N1 virus, Virg09 strain, MTS
# [4] = Influenza A virus, MDCK, read-out: Antiviral EC50 against A/H1N1 virus, Virg09 strain, Microscopy
# [5] = read-out: Antiviral EC50 against A/H1N1 virus, PR8 strain, MTS
# [6] = read-out: Antiviral EC50 against A/H1N1 virus, PR8 strain, Microscopy
# [7] = Influenza A virus, MDCK, read-out: Antiviral EC50 for Virg09 virus
# [8] = read-out: Antiviral EC50 for PR8 virus
# [9] = read-out: Antiviral EC50 against A/H1N1 virus, Virg09 strain, MTS
Compound,CC50 (in vitro) [µM],"ΔΔG (exp), change VF-57a → labelled compound [1]","ΔΔG (exp), change labelled compound → VF-57a [1]","EC50 [1, 3] [µM]","EC50 [1, 4] [µM]","EC50 [2, 5] [µM]","EC50 [2, 6] [µM]","Cytotoxicity MCC, Microscopy (MDCK cells) [µM]",Antiviral activity against A/H1N1 virus (in words) (A/H1N1 virus),"EC50 [1, 7] [µM]","EC50 [2, 8] [µM]","Selectivity index (ratio of CC50 to EC50, SI) (A/H1N1 virus)","EC50 [1, 9] [µM]",Cytotoxicity at 100 μM (in words) (MDCK cells)
"O=C(NCc1ccsc1)c1cc(Cl)cc(C(F)(F)F)c1 [Compound 50, 3-Chloro-N-(Thiophen-3-ylmethyl)-5-(trifluoromethyl)benzamide]",70 ± 2,0.8 kcal/mol,–0.8 kcal/mol,1.1 ± 0.5,2.1,2 ± 1,1 ± 0.6,100 ± 0,–,–,–,–,–,–
"Cc1cc(CNC(=O)c2cc(F)cc(C(F)(F)F)c2)cs1 [Compound 45, 3-Fluoro-N-((5-methylthiophen-3-yl)methyl)-5-(trifluoromethyl)benzamide]",67 ± 1,–,–,0.39 ± 0.18,1.6 ± 0.5,0.68 ± 0.51,0.26 ± 0.02,78 ± 22,–,–,–,–,–,–
"Cc1cc(COC(=O)c2cc(F)cc(C(F)(F)F)c2)c(C)s1 [Compound 63, (2,5-Dimethylthiophen-3-yl)methyl 3-fluoro-5-(trifluoromethyl)benzoate]",–,–,–,–,–,–,–,–,Neither the ester 63 nor the secondary amine 64 showed antiviral activity; also recorded: inactive,> 100,> 100,–,–,–
"Cc1cc(CNC(=O)c2cc(C(F)(F)F)cc(Cl)c2F)c(C)s1 [Compound 37, 3-Chloro-N-((2,5-dimethylthiophen-3-yl)methyl)-2-fluoro-5-(trifluoromethyl)benzamide]",> 100,–,–,> 100,> 100,2.9,1.6 ± 0.8,56 ± 22,less active,–,–,–,–,–
"Cc1cc(C(=O)NCc2cc(F)cc(C(F)(F)F)c2)c(C)s1 [Compound 65, N-(3-Fluoro-5-(trifluoromethyl)benzyl)-2,5-dimethylthiophene-3-carboxamide]",–,–,–,–,–,–,–,–,fully inactive,> 100,> 100,–,–,–
"Cc1cc(CNC(=O)c2cc(F)cc(C(F)(F)F)c2)c(C)s1 [Compound 22, N-[(2,5-Dimethylthiophen-3-yl)methyl]-3-fluoro-5-(trifluoromethyl)benzamide]",> 100,0.2 kcal/mol,–0.2 kcal/mol,0.4,1.7 ± 1.1,1.1 ± 0.3,1.5 ± 0.6,>100,–,~1,~1,> 100,0.44 ± 0.19,without showing any cytotoxicity
"Cc1cc(CNC(=O)c2cc(Cl)c(F)c(C(F)(F)F)c2)cs1 [Compound 52, 3-Chloro-4-fluoro-N-((5-methylthiophen-3-yl)methyl)-5-(trifluoromethyl)benzamide]",> 100,–,–,> 100,> 100,8.5 ± 5.6,13 ± 8,>100,–,–,–,–,–,–
"O=C(NCc1ccsc1)c1cc(F)cc(C(F)(F)F)c1 [Compound 47, 3-Fluoro-N-(Thiophen-3-ylmethyl)-5-(trifluoromethyl)benzamide]",> 100,1.9 kcal/mol,–1.9 kcal/mol,7.2 ± 4.1,20 ± 8,0.42 ± 0.1,0.44 ± 0.16,>100,–,–,–,–,–,–
"Cc1cc(CNC(=O)c2cc(C(F)(F)F)cc(C(F)(F)F)c2)c(C)s1 [Compound 25, N-[(2,5-Dimethylthiophen-3-yl)methyl]-3,5-bis(trifluoromethyl)benzamide]",–,–,–,–,–,–,–,–,abolished the antiviral activity,> 100,> 100,–,–,–
"Cc1cc(CNC(=O)c2cc(Cl)cc(C(F)(F)F)c2)cs1 [Compound 48, 3-Chloro-N-((5-methylthiophen-3-yl)methyl)-5-(trifluoromethyl)benzamide]",> 100,–,–,0.15 ± 0.12,1.9 ± 1.1,0.34 ± 0.18,0.46 ± 0.14,>100,–,–,–,–,–,–
"Cc1cc(CNC(=O)c2cc(F)c(F)c(C(F)(F)F)c2)c(C)s1 [Compound 35, N-((2,5-Dimethylthiophen-3-yl)methyl)-3,4-difluoro-5-(trifluoromethyl)benzamide]",> 100,–,–,0.2 ± 0.05,0.89 ± 0.13,0.22 ± 0.03,0.86 ± 0.41,>100,–,–,–,–,–,–
"NC(=O)c1ncn([C@@H]2O[C@H](CO)[C@@H](O)[C@H]2O)n1 [Ribavirin, reference compound]",> 250,–,–,20 ± 2,25,38 ± 3,27 ± 1,80 ± 20,–,–,–,–,–,–
"Cc1cc(CNC(=O)c2cc(F)c(F)c(C(F)(F)F)c2)cs1 [Compound 51, 3,4-Difluoro-N-((5-methylthiophen-3-yl)methyl)-5-(trifluoromethyl)benzamide]",24 ± 2,–,–,5.3 ± 0.8,> 100,2.9 ± 1.1,3.5 ± 1.2,33 ± 0,–,–,–,–,–,–
"Cc1cc(Cl)cc(C(=O)NCc2cc(C)sc2C)c1 [Compound 29, 3-Chloro-N-[(2,5-dimethylthiophen-3-yl)methyl]-5-methylbenzamide]",–,–,–,–,–,–,–,–,No activity,> 100,> 100,–,–,–
"Cc1sccc1CNC(=O)c1cc(F)cc(C(F)(F)F)c1 [Compound 46, 3-Fluoro-N-((2-methylthiophen-3-yl)methyl)-5-(trifluoromethyl)benzamide]",> 100,1.8 kcal/mol,–1.8 kcal/mol,6.8 ± 6.5,8.3 ± 5.1,0.23 ± 0.08,0.17 ± 0.04,67 ± 33,–,–,–,–,–,–
"Cc1cc(CNC(=O)c2cc(Cl)cc(C(F)(F)F)c2Cl)c(C)s1 [Compound 39, 2,5-Dichloro-N-((2,5-dimethylthiophen-3-yl)methyl)-3-(trifluoromethyl)benzamide]",> 100,–,–,0.82 ± 0.61,8.1 ± 0.5,5.9 ± 3.2,11 ± 6,52 ± 25,less active,–,–,–,–,–
"Cc1cc(CNC(=O)c2cc(F)cc(C(F)(F)F)c2)c(C)o1 [Compound 54, N-((2,5-Dimethylfuran-3-yl)methyl)-3-fluoro-5-(trifluoromethyl)benzamide]",79 ± 5,–,–,0.54 ± 0.06,3.6 ± 2.8,0.47 ± 0.19,0.54 ± 0.17,100 ± 0,–,–,–,–,–,–
"Cc1cc(CNC(=O)c2cc(Br)cc(C(F)(F)F)c2)c(C)s1 [Compound 24, 3-Bromo-N-[(2,5-dimethylthiophen-3-yl)methyl]-5-(trifluoromethyl)benzamide]",–,–,–,–,–,–,–,–,abolished the antiviral activity,> 100,> 100,–,–,–
"Cc1cc(CNC(=O)c2cc(Cl)cc(C(F)(F)F)c2)c(C)o1 [Compound 55, 3-Chloro-N-((2,5-dimethylfuran-3-yl)methyl)-5-(trifluoromethyl)benzamide]",29,–,–,1.1 ± 0.3,> 100,0.24 ± 0.08,0.54 ± 0.37,33 ± 0,–,–,–,–,–,–
"Cc1cc(CNC(=O)c2cc(Cl)cc(C(F)(F)F)c2Cl)cs1 [Compound 53, 2,5-Dichloro-N-((5-methylthiophen-3-yl)methyl)-3-(trifluoromethyl)benzamide]",> 100,–,–,31 ± 3,> 100,17 ± 8,> 100,>100,–,–,–,–,–,–
"Cc1cc(CNC(=O)c2cc(Cl)c(F)c(C(F)(F)F)c2)c(C)s1 [Compound 38, 3-Chloro-N-((2,5-dimethylthiophen-3-yl)methyl)-4-fluoro-5-(trifluoromethyl)benzamide]",> 100,–0.3 kcal/mol,0.3 kcal/mol,0.1,3.1 ± 0.5,0.27 ± 0.12,1.6 ± 0.8,40,good antiviral activity,–,–,–,0.18 ± 0.04,–
"Cc1cc(CNCc2cc(F)cc(C(F)(F)F)c2)c(C)s1 [Compound 64, 1-(2,5-Dimethylthiophen-3-yl)-N-(3-fluoro-5-(trifluoromethyl)benzyl)methanamine]",–,–,–,–,–,–,–,–,Neither the ester 63 nor the secondary amine 64 showed antiviral activity; also recorded: inactive,> 100,> 100,–,–,–
"Cc1sccc1CNC(=O)c1cc(Cl)cc(C(F)(F)F)c1 [Compound 49, 3-Chloro-N-((2-methylthiophen-3-yl)methyl)-5-(trifluoromethyl)benzamide]",> 100,–,–,0.37 ± 0.16,0.48 ± 0.07,0.14 ± 0.04,0.14 ± 0.05,78 ± 22,–,–,–,–,–,–
"O=C(NCc1cncs1)c1cc(F)cc(C(F)(F)F)c1 [Compound 57, 3-Fluoro-N-(Thiazol-5-ylmethyl)-5-(trifluoromethyl)benzamide]",–,–,–,–,–,–,–,–,–,> 100,> 100,–,–,–
"Cc1cc(CNC(=O)c2cc(C(F)(F)F)c(F)c(F)c2F)c(C)s1 [Compound 36, N-((2,5-Dimethylthiophen-3-yl)methyl)-2,3,4-trifluoro-5-(trifluoromethyl)benzamide]",–,–,–,–,–,–,–,–,abolished the antiviral effect,> 100,> 100,–,–,–

# — PMC12434670 (Journal of Medicinal Chemistry, 2025)
